Experimental data from patent US20110092509A1, “Pharmaceutical Composition for Prevention or Treatment of Disease Associated with Tear Reduction” (Kissei Pharmaceutical, Co. Ltd., priority 2007, published 2011).
Counter-ions that a name gives are not always drawn.

Legend:
Type in all cases: in vivo, rabbit
[1] = tested on: Japanese white rabbits; experiment: Measurement of quantity of tear secretion in rabbits (filter paper weight, ocular instillation); conditions: for Tear secretion: change before vs 5 min after instillation of 50 μL of 0.1 w/v % solution (phosphate buffer, pH7.4) to both eyes, anesthetized male rabbits, 5 min measurement, mean
Protocol: (§1) Three male Japanese white rabbits (about 3 kg) were allocated to each group. Each 50 μL of ½ sulfate salt of Compound 1 (0.1% phosphate buffer solution, pH7.4), terbutaline sulfate (0.1% phosphate buffer solution, pH7.4) or a solvent thereof (a phosphate buffer, pH7.4) was administered to both eyes of the rabbit which was anesthetized with pentobarbital (40 mg/kg, i.v.). Two pieces each of pre-weighed filter paper (Wattman No. 41, 0.22 μm thick, 2.5×15 mm) were inserted to the lower conjunctival sac of the right or left eye, and the difference in weight of the filter papers before and after insertion (post-insertion weight−pre-insertion weight) was defined as the quantity of tear secretion. The quantity of tear secretion was measured for 5 min before drug administration and for 5 min at 5 min after drug administration. Fifty (50) μL of a local anesthetic agent, 0.4% oxybuprocaine hydrochloride (Santen Co.), was instilled into eyes 5 min before each measurement. Tear and the instilled local anesthetic were wiped immediately before the filter paper was inserted.
(§2) Filter papers recovered after each measurement were placed into tubes. A phosphate buffer (pH 7.4) (500 μL) was added to each of the tubes, and they were mixed by vortex mixer for 30 sec. After the filter papers were removed and the mixture was centrifuged at 470×g for 5 min, protein concentrations in supernatant were measured using Micro BCA Protein Assay Reagent Kit (Pierce Co.). The quantity of protein in tear was calculated based on the measured protein concentration and quantity of tear secretion. The difference in the quantity of tear secretion before administration of a solvent, ½ sulfate of Compound 1 or terbutaline sulfate and that after administration was defined as a change in the quantity of tear secretion or protein in tear, respectively. Each milligram of the change in the quantity of tear was taken as 1 μL.

[2] = tested on: PAS positive goblet cells; experiment: Mucin secretion from conjunctiva in rabbits: count of PAS positive goblet cells by impression cytology; conditions: 0.1 w/v % instilled; for Count of PAS-positive goblet cells: percentage of the solvent group, decrease indicates facilitated mucin secretion from conjunctiva, mean
Protocol: In addition, at the same timing of measurement of the quantity of tear secretion, 3 mm diameter cellulose acetate filter paper was pressed on the conjunctiva for 30 sec. by impression cytology method, and periodic acid/Schiff (PAS) staining was performed with the recovered filter papers. After filter papers were cleared and embedded, the number of PAS positive goblet cells existing in a certain visual field of a microscope was counted.
Decreases in the count of PAS positive goblet cells indicate that mucin secretion from the conjunctiva is facilitated. Each value is mean of 4 animals, and ½ sulfate of Compound 1 increased extremely about 30% more in the quantity of tear secretion, about 200% more the quantity of protein in tear and about 50% more mucin secretion from conjunctiva in comparison with the solvent and terbutaline sulfate.

[3] = tested on: Japanese white rabbits; experiment: Measurement of quantity of protein in tear in rabbits (Micro BCA Protein Assay); conditions: for Change in protein in tear: change before vs after instillation of 50 μL of 0.1 w/v % solution to both eyes, anesthetized male rabbits, mean
Protocol: as §1, §2

[4] = 0.1 w/v % instilled, rabbits, '% more'

Row | SMILES | Tear secretion [1] [µL] | Count of PAS-positive goblet cells [2] [%] | Change in protein in tear [3] [µg] | Increase in quantity of tear secretion in comparison with the solvent and terbutaline sulfate [1, 4] | Increase in mucin secretion from conjunctiva in comparison with the solvent and terbutaline sulfate ([2]; rabbits, '% more') | Increase in quantity of protein in tear in comparison with the solvent and terbutaline sulfate [3, 4] | Effect on quantity of tear secretion (in words) ([1]; 0.1 w/v % instilled, rabbits) | Effect on mucin secretion from conjunctiva (in words) ([2]; rabbits) | Effect on quantity of protein in tear (in words) ([3]; 0.1 w/v % instilled, rabbits)
1 | CC(C)(C)NCC(O)c1cc(O)cc(O)c1 (stereo not drawn) [Terbutaline sulfate, reference compound] | 3.80 | 77.3 | 1.04 | – | – | – | – | – | –
2 | CN(C)C(=O)COc1ccc2c(c1)C[C@@H](NC[C@H](O)c1ccc(O)cc1)CC2 [½ sulfate of Compound 1, 2-[(2S)-2-[[(2R)-2-hydroxy-2-(4-hydroxyphenyl)ethyl]-amino]-1,2,3,4-tetrahydronaphthalen-7-yloxy]-N,N-dimethyl-acetamide] | 4.87 | 64.8 | 2.57 | about 30% | about 50% | about 200% | – | – | –
3 | C[C@H](Cc1ccc2c(c1)OC[C@H](C(=O)O)O2)NC[C@H](O)c1cccc(Cl)c1 [Compound N-5984, 6-[2-(R)-[[2-(R)-(3-chlorophenyl)-2-hydroxyethyl]amino]propyl]-2,3-dihydro-1,4-benzodioxine-2-(R)-carboxylic acid] | 4.42 | 57.1 | 2.72 | – | – | – | extremely increased | extremely increased | extremely increased
